Results as given in US20260206810A1, “NATURAL SWEETENER COMPOSITIONS AND USES THEREOF” (Firmenich SA, priority 2022, published 2026).
Values joined by “and” are separate entries in the source; they are usually repeats but may differ in a detail not shown here. Identical values can stand only once.

Experiment: Visual assessment of sweetener solubilization (solution aspect) at room temperature
Assay type: physicochemical
Procedure: Unless otherwise stated, the inventive compositions of the examples were prepared according to the following general procedure. Solvent A, Solvent B (or mix of solvents B) and solvent C (or mix of solvents C) were mixed using a mechanical stirrer at room temperature (22° C.) to obtain a clear one-phase liquid. A solid natural sweetener in pure form or a blend of solid natural sweeteners was then added to the transparent solvent mixture and mechanically stirred. Mechanical stirring was maintained until the complete solubilization of the sweetener(s) at room temperature was observed. Comparative compositions were prepared analogously. The tables in the following examples summarize the components used in the inventive and comparative compositions.
Comparative and inventive compositions were prepared according to Table 1 below. The solubilization of the sweetener was assessed visually as a function of time. The stability of the concentrated solution (transparency of the solution) was also assessed visually at room temperature (22° C.) as a function of time.

Amount dispersed giving non-complete solubilization and a cloudy solution (binary mix ethanol/water 80/20, after 1 day at room temperature (22° C.)): 3 % wt
Amount dispersed giving non-complete solubilization and a cloudy solution (binary mix glycerol/water 80/20, after 1 day at room temperature (22° C.)): 2 % wt and 1 % wt
Amount dispersed giving non-complete solubilization and a cloudy solution (binary mix propylene glycol/glycerol 33/66, after 2 days at room temperature (22° C.)): 4.6 % wt
Amount of sweetener that was soluble (binary mix propylene glycol/glycerol 33/66, room temperature (22° C.)): 2.6 % wt
Amount dispersed giving non-complete solubilization and a cloudy solution (binary mix propylene glycol/glycerol 50/50, after 2 days at room temperature (22° C.)): 4.6 % wt
Amount of sweetener that was soluble (binary mix propylene glycol/glycerol 50/50, room temperature (22° C.)): 3.8 % wt
Amount dispersed giving non-complete solubilization and a cloudy solution (binary mix propylene glycol/water 80/20, after 2 days at room temperature (22° C.)): 11 % wt
Amount of sweetener that was soluble (binary mix propylene glycol/water 80/20, room temperature (22° C.)): 10 % wt
Amount of sweetener solubilized (glycerol/water 80/20 with 48% wt of glycerol replaced by ethanol): 12%
Compound: C=C1C[C@@]23CC[C@H]4[C@@](C)(CCC[C@@]4(C)C(=O)O[C@@H]4O[C@H](CO)[C@@H](O)[C@H](O)[C@H]4O)[C@@H]2CC[C@]1(O[C@@H]1O[C@H](CO)[C@@H](O)[C@H](O[C@@H]2O[C@H](CO)[C@@H](O)[C@H](O)[C@H]2O)[C@H]1O[C@@H]1O[C@H](CO)[C@@H](O)[C@H](O)[C@H]1O)C3 [Reb A (99.5%), Rebaudioside A]
